Measured values taken from BindingDB's records for doi:10.1016/S0960-894X(96)00249-1 (1996).

target: not listed separately; test: Inhibitory activity against gastrin receptor.

| SMILES | IC50 [nM] |
| --- | --- |
| CN1C(=O)[C@H](NC(=O)Nc2cccc(COC(=O)NCCNC(=O)CC(=O)NCCCOc3cccc(CN4CCCCC4)c3)c2)N=C(c2ccccc2)c2ccccc21 [(2-{2-[3-(3-Piperidin-1-ylmethyl-phenoxy)-propylcarbamoyl]-acetylamino}-ethyl)-carbamic acid 3-[3-((R)-1-methyl-2-oxo-5-phenyl-2,3-dihydro-1H-benzo[e][1,4]diazepin-3-yl)-ureido]-benzyl ester] | 19 |
| CN1C(=O)[C@H](NC(=O)Nc2cccc(CCOC(=O)NCCCNCCSCc3csc(CC(=N)N)n3)c2)N=C(c2ccccc2)c2ccccc21 [(3-{2-[2-(2,2-Diamino-vinyl)-thiazol-4-ylmethylsulfanyl]-ethylamino}-propyl)-carbamic acid 2-{3-[3-((R)-1-methyl-2-oxo-5-phenyl-2,3-dihydro-1H-benzo[e][1,4]diazepin-3-yl)-ureido]-phenyl}-ethyl ester] | 37 |
| Cc1cccc(NC(=O)N[C@@H]2N=C(c3ccccc3)c3ccccc3N(CCOC(=O)NCCCC(=O)NCCSCc3csc(CC(=N)N)n3)C2=O)c1 [(3-{2-[2-(2,2-Diamino-vinyl)-thiazol-4-ylmethylsulfanyl]-ethylcarbamoyl}-propyl)-carbamic acid 2-[(R)-2-oxo-5-phenyl-3-(3-m-tolyl-ureido)-2,3-dihydro-benzo[e][1,4]diazepin-1-yl]-ethyl ester] | 17 |
| Cc1cccc(NC(=O)N[C@@H]2N=C(c3cccc(OC(=O)NCCCC(=O)NCCSCc4csc(CC(=N)N)n4)c3)c3ccccc3N(C)C2=O)c1 [(3-{2-[2-(2,2-Diamino-vinyl)-thiazol-4-ylmethylsulfanyl]-ethylcarbamoyl}-propyl)-carbamic acid 3-[(R)-1-methyl-2-oxo-3-(3-m-tolyl-ureido)-2,3-dihydro-1H-benzo[e][1,4]diazepin-5-yl]-phenyl ester] | > 1000 |
| CN1C(=O)[C@H](NC(=O)Nc2cccc(COC(=O)NCCN3CCN(C(=O)CNCCCOc4cccc(CN5CCCCC5)c4)CC3)c2)N=C(c2ccccc2)c2ccccc21 [[2-(4-{2-[3-(3-Piperidin-1-ylmethyl-phenoxy)-propylamino]-acetyl}-piperazin-1-yl)-ethyl]-carbamic acid 3-[3-((R)-1-methyl-2-oxo-5-phenyl-2,3-dihydro-1H-benzo[e][1,4]diazepin-3-yl)-ureido]-benzyl ester] | 7 |
| CN1C(=O)[C@H](NC(=O)Nc2cccc(COC(=O)NCCCN3CCN(C(=O)CNCCCOc4cccc(CN5CCCCC5)c4)CC3)c2)N=C(c2ccccc2)c2ccccc21 [[3-(4-{2-[3-(3-Piperidin-1-ylmethyl-phenoxy)-propylamino]-acetyl}-piperazin-1-yl)-propyl]-carbamic acid 3-[3-((R)-1-methyl-2-oxo-5-phenyl-2,3-dihydro-1H-benzo[e][1,4]diazepin-3-yl)-ureido]-benzyl ester] | 9 |
| CN1C(=O)[C@H](NC(=O)Nc2cccc(CCOC(=O)NCCC(=O)NCCCOc3cccc(CN4CCCCC4)c3)c2)N=C(c2ccccc2)c2ccccc21 [{2-[3-(3-Piperidin-1-ylmethyl-phenoxy)-propylcarbamoyl]-ethyl}-carbamic acid 2-{3-[3-((R)-1-methyl-2-oxo-5-phenyl-2,3-dihydro-1H-benzo[e][1,4]diazepin-3-yl)-ureido]-phenyl}-ethyl ester] | 27 |
| CN1C(=O)[C@H](NC(=O)Nc2cccc(COC(=O)NCCC(=O)NCCCOc3cccc(CN4CCCCC4)c3)c2)N=C(c2ccccc2)c2ccccc21 [{2-[3-(3-Piperidin-1-ylmethyl-phenoxy)-propylcarbamoyl]-ethyl}-carbamic acid 3-[3-((R)-1-methyl-2-oxo-5-phenyl-2,3-dihydro-1H-benzo[e][1,4]diazepin-3-yl)-ureido]-benzyl ester] | 36 |
| Cc1cccc(NC(=O)N[C@@H]2N=C(c3ccccc3)c3ccccc3N(CCOC(=O)NCCCC(=O)NCCCOc3cccc(CN4CCCCC4)c3)C2=O)c1 [{3-[3-(3-Piperidin-1-ylmethyl-phenoxy)-propylcarbamoyl]-propyl}-carbamic acid 2-[(R)-2-oxo-5-phenyl-3-(3-m-tolyl-ureido)-2,3-dihydro-benzo[e][1,4]diazepin-1-yl]-ethyl ester] | 135 |
| CN1C(=O)[C@H](NC(=O)Nc2cccc(CCOC(=O)NCCCC(=O)NCCCOc3cccc(CN4CCCCC4)c3)c2)N=C(c2ccccc2)c2ccccc21 [{3-[3-(3-Piperidin-1-ylmethyl-phenoxy)-propylcarbamoyl]-propyl}-carbamic acid 2-{3-[3-((R)-1-methyl-2-oxo-5-phenyl-2,3-dihydro-1H-benzo[e][1,4]diazepin-3-yl)-ureido]-phenyl}-ethyl ester] | 23 |
| CN1C(=O)[C@H](NC(=O)Nc2cccc(COC(=O)NCCCC(=O)NCCCOc3cccc(CN4CCCCC4)c3)c2)N=C(c2ccccc2)c2ccccc21 [{3-[3-(3-Piperidin-1-ylmethyl-phenoxy)-propylcarbamoyl]-propyl}-carbamic acid 3-[3-((R)-1-methyl-2-oxo-5-phenyl-2,3-dihydro-1H-benzo[e][1,4]diazepin-3-yl)-ureido]-benzyl ester] | 26 |
| Cc1cccc(NC(=O)N[C@@H]2N=C(c3cccc(OC(=O)NCCCC(=O)NCCCOc4cccc(CN5CCCCC5)c4)c3)c3ccccc3N(C)C2=O)c1 [{3-[3-(3-Piperidin-1-ylmethyl-phenoxy)-propylcarbamoyl]-propyl}-carbamic acid 3-[(R)-1-methyl-2-oxo-3-(3-m-tolyl-ureido)-2,3-dihydro-1H-benzo[e][1,4]diazepin-5-yl]-phenyl ester] | 220 |
| CN1C(=O)[C@H](NC(=O)Nc2cccc(COC(=O)NCC(=O)NCCCOc3cccc(CN4CCCCC4)c3)c2)N=C(c2ccccc2)c2ccccc21 [{[3-(3-Piperidin-1-ylmethyl-phenoxy)-propylcarbamoyl]-methyl}-carbamic acid 3-[3-((R)-1-methyl-2-oxo-5-phenyl-2,3-dihydro-1H-benzo[e][1,4]diazepin-3-yl)-ureido]-benzyl ester] | 11 |

target: T1, Gastrin/cholecystokinin type B receptor (Homo sapiens, UniProt P32239); test: ChEBML_71518
T1 sequence (P32239 whole entry): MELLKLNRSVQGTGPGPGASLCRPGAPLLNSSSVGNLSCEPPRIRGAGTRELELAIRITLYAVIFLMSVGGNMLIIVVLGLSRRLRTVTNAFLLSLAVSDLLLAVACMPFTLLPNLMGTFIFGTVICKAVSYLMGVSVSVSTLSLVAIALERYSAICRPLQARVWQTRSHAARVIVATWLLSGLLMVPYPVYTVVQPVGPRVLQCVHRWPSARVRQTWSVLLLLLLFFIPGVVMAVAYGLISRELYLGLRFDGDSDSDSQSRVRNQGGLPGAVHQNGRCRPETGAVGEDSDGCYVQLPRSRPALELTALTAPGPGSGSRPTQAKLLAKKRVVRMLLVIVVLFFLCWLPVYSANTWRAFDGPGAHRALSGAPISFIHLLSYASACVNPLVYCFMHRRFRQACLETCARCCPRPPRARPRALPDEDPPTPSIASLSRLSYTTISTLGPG

| SMILES | IC50 [nM] |
| --- | --- |
| CN1C(=O)[C@H](NC(=O)Nc2cccc(COC(=O)NCNC(=O)CC(=O)NCCSCc3csc(CC(=N)N)n3)c2)N=C(c2ccccc2)c2ccccc21 [[(2-{2-[2-(2,2-Diamino-vinyl)-thiazol-4-ylmethylsulfanyl]-ethylcarbamoyl}-acetylamino)-methyl]-carbamic acid 3-[3-((R)-1-methyl-2-oxo-5-phenyl-2,3-dihydro-1H-benzo[e][1,4]diazepin-3-yl)-ureido]-benzyl ester] | 4 |
